Patent publication US9993494B2, “Compositions and methods for treating fibrotic disease” (eFFECTOR Therapeutics, Inc., priority 2014, dated 2018)

System: normal human lung fibroblasts
Test: Ribosomal profiling: translational efficiency in TGFβ-treated fibroblasts
Type: cell-based
Procedure, shortened: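 Genome-wide RPF and total RNA libraries (ARTseq, RNA-Seq) were made from lysates of cycloheximide-treated, PBS-washed cells. After trimming and human-genome mapping, per-gene coding-region counts were compared between RPF and RNA for translational efficiency. Genes scoring low in either fraction were dropped.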

TGFβ
change in translational profile of CTPS caused by TGFβ (ENSG00000171793, Control vs. TGFβ): D (D = <1.0 to 1.5)
Log2 TE RPS21 (ENSG00000171858, 5 replicates): 1.846
Log2 TE RPS7 (ENSG00000171863, 5 replicates): 1.549
Log2 TE QARS (ENSG00000172053, 5 replicates): 1.362
change in translational profile of QARS caused by TGFβ (ENSG00000172053, Control vs. TGFβ): D (D = <1.0 to 1.5)
Log2 TE RPL38 (ENSG00000172809, 5 replicates): 1.353
change in translational profile of RPL38 caused by TGFβ (ENSG00000172809, Control vs. TGFβ): E (E = <1.5 to 2.5)
Log2 TE HSPB7 (ENSG00000173641, 5 replicates): 1.292
change in translational profile of MRPL45 caused by TGFβ (ENSG00000174100, Control vs. TGFβ): D (D = <1.0 to 1.5)
Log2 TE EVX2 (ENSG00000174279, 5 replicates): 2.887
Log2 TE RPL4 (ENSG00000174444, 5 replicates): 1.688
change in translational profile of RPL4 caused by TGFβ (ENSG00000174444, Control vs. TGFβ): E (E = <1.5 to 2.5)
Log2 TE RPL15 (ENSG00000174748, 5 replicates): 1.254
change in translational profile of RPL15 caused by TGFβ (ENSG00000174748, Control vs. TGFβ): D (D = <1.0 to 1.5)
Log2 TE DES (ENSG00000175084, 5 replicates): 1.204
change in translational profile of DES caused by TGFβ (ENSG00000175084, Control vs. TGFβ): E (E = <1.5 to 2.5)
Log2 TE CST6 (ENSG00000175315, 5 replicates): 1.241
Log2 TE EIF3F (ENSG00000175390, 5 replicates): 1.29
change in translational profile of EIF3F caused by TGFβ (ENSG00000175390, Control vs. TGFβ): D (D = <1.0 to 1.5)
Log2 TE CLCF1 (ENSG00000175505, 5 replicates): 1.594
change in translational profile of CLCF1 caused by TGFβ (ENSG00000175505, Control vs. TGFβ): E (E = <1.5 to 2.5)
Log2 TE AMIGO3 (ENSG00000176020, 5 replicates): −1.314
change in translational profile of AMIGO3 caused by TGFβ (ENSG00000176020, Control vs. TGFβ): C (C = <−1.0 to −1.5)
Log2 TE C14orf49 (ENSG00000176438, 5 replicates): −1.044
change in translational profile of C14orf49 caused by TGFβ (ENSG00000176438, Control vs. TGFβ): C (C = <−1.0 to −1.5)
Log2 TE RPLP2 (ENSG00000177600, 5 replicates): 1.694
change in translational profile of RPLP2 caused by TGFβ (ENSG00000177600, Control vs. TGFβ): E (E = <1.5 to 2.5)
Log2 TE RPS27 (ENSG00000177954, 5 replicates): 1.429
change in translational profile of IMPDH2 caused by TGFβ (ENSG00000178035, Control vs. TGFβ): D (D = <1.0 to 1.5)
Log2 TE DNAJC22 (ENSG00000178401, 5 replicates): −1.189
change in translational profile of DNAJC22 caused by TGFβ (ENSG00000178401, Control vs. TGFβ): B (B = <−1.5 to −2.5)
Log2 TE YOD1 (ENSG00000180667, 5 replicates): 1.146
Log2 TE PGBD4 (ENSG00000182405, 5 replicates): 1.055
Log2 TE RPL35A (ENSG00000182899, 5 replicates): 1.627
change in translational profile of RPL35A caused by TGFβ (ENSG00000182899, Control vs. TGFβ): E (E = <1.5 to 2.5)
change in translational profile of LENG9 caused by TGFβ (ENSG00000182909, Control vs. TGFβ): D (D = <1.0 to 1.5)
change in translational profile of C22orf32 caused by TGFβ (ENSG00000183172, Control vs. TGFβ): D (D = <1.0 to 1.5)
Log2 TE CHEK2 (ENSG00000183765, 5 replicates): −1.457
change in translational profile of NPW caused by TGFβ (ENSG00000183971, Control vs. TGFβ): D (D = <1.0 to 1.5)
Log2 TE ALDH1A3 (ENSG00000184254, 5 replicates): −1.327
Log2 TE PDE4B (ENSG00000184588, 5 replicates): −2.021
change in translational profile of PDE4B caused by TGFβ (ENSG00000184588, Control vs. TGFβ): B (B = <−1.5 to −2.5)
Log2 TE CDCA2 (ENSG00000184661, 5 replicates): −1.573
Log2 TE 5-Sep (ENSG00000184702, 5 replicates): 1.209
change in translational profile of ROBO2 caused by TGFβ (ENSG00000185008, Control vs. TGFβ): C (C = <−1.0 to −1.5)
Log2 TE SEMA4B (ENSG00000185033, 5 replicates): −1.413
Log2 TE SH3BGR (ENSG00000185437, 5 replicates): 1.121
change in translational profile of PTCH1 caused by TGFβ (ENSG00000185920, Control vs. TGFβ): D (D = <1.0 to 1.5)
Log2 TE POLR1D (ENSG00000186184, 5 replicates): 1.23
change in translational profile of POLR1D caused by TGFβ (ENSG00000186184, Control vs. TGFβ): E (E = <1.5 to 2.5)
Log2 TE RPS23 (ENSG00000186468, 5 replicates): 1.302
Log2 TE DYNC2H1 (ENSG00000187240, 5 replicates): −1.228
change in translational profile of DYNC2H1 caused by TGFβ (ENSG00000187240, Control vs. TGFβ): B (B = <−1.5 to −2.5)
Log2 TE TET3 (ENSG00000187605, 5 replicates): 1.541
Log2 TE ZSCAN23 (ENSG00000187987, 5 replicates): −1.048
Log2 TE RPL14 (ENSG00000188846, 5 replicates): 1.745
change in translational profile of RPL14 caused by TGFβ (ENSG00000188846, Control vs. TGFβ): E (E = <1.5 to 2.5)
change in translational profile of LRRK2 caused by TGFβ (ENSG00000188906, Control vs. TGFβ): C (C = <−1.0 to −1.5)
Log2 TE ZNF33A (ENSG00000189180, 5 replicates): −1.058
